One assay has as its target rat orexin 1 receptor (Rattus norvegicus (Rat), UniProt P56718). As to the kind of experiment: Rat orexin 1 receptor radioligand binding (competitive binding, HEK293 membranes).
Another assay deals with human orexin 2 receptor (Homo sapiens (Human), UniProt O43614). As to the kind of experiment: Human orexin 2 receptor radioligand binding ([3H]-EMPA competition, HEK293 membranes). Particulars: read-out: hOX2 Ki.
In a further assay the target is human orexin 1 receptor (Homo sapiens (Human), UniProt O43613). The assay can be described thus: Human orexin 1 receptor radioligand binding (competitive binding, CHO membranes).
human orexin 1 receptor, sequence (O43613 whole entry): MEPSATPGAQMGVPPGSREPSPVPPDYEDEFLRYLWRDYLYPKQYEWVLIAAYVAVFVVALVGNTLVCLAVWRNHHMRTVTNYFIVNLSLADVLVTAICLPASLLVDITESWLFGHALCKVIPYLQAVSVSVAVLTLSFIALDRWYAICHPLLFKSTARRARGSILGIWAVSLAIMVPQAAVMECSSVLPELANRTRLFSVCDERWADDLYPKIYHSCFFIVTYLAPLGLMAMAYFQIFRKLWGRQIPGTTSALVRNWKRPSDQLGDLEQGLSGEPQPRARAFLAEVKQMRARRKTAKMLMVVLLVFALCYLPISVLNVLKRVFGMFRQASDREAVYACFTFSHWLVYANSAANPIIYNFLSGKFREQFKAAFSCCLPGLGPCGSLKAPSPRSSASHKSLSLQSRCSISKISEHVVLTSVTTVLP
[1] abbreviates: rat orexin 1 receptor, Table 2, averages from between 2-20 runs, read-out: rOX1 Ki.
[2] abbreviates: human orexin 2 receptor, Table 2, averages from between 2-20 runs.
Where [3] appears, read: human orexin 1 receptor, Table 2, averages from between 2-20 runs, read-out: hOX1 Ki.
Where [4] appears, read: Table 2, further testing, averages from 2-20 runs.
Setting [5] is: Table 2, further testing, averages from 2-20 runs, read-out: rOX1 Ki.
Where [6] appears, read: Table 2, further testing, averages from 2-20 runs, read-out: hOX1 Ki.

Data on 23 molecules can be found in patent US9637496B2, “Substituted 7-azabicycles and their use as orexin receptor modulators” (priority 2013, dated 2017).

Read-outs that look alike come from different tables or passages of the source. Bounds are passed on as bounds.

human orexin 2 receptor, sequence (O43614 whole entry): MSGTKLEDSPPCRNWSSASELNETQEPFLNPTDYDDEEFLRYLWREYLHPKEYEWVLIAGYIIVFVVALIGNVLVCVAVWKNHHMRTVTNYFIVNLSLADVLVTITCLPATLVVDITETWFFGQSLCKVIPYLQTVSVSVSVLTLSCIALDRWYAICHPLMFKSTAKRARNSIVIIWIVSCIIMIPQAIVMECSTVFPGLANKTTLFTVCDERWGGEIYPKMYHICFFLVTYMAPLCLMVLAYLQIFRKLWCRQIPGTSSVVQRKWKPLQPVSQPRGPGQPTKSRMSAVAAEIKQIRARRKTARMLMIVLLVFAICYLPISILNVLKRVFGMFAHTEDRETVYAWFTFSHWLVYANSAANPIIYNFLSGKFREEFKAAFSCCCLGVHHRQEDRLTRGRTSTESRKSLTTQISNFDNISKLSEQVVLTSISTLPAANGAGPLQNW
rat orexin 1 receptor, sequence (P56718 whole entry): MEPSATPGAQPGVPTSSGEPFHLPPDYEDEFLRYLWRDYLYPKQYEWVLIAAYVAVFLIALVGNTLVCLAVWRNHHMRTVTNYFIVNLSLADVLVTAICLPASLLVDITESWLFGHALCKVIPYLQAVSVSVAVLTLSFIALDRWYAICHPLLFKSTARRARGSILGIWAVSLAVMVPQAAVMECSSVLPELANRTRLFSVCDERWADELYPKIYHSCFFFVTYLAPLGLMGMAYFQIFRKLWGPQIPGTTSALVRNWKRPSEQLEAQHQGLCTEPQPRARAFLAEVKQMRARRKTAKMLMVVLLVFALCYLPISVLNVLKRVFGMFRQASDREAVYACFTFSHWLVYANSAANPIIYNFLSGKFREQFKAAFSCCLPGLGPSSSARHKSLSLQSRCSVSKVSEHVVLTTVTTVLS

As to `N#Cc1ccc(N[C@@H]2C[C@H]3CC[C@@H]2N3C(=O)c2cccc(F)c2-n2nccn2)nc1` [Example 390, 6-(((1S,2R,4R)-7-(3-fluoro-2-(2H-1,2,3-triazol-2-yl)benzoyl)-7-azabicyclo[2.2.1]heptan-2-yl)amino)nicotinonitrile], the Ki on rat orexin 1 receptor (setting [1]) was 1500 nM; at human orexin 2 receptor (setting [2]), above 10000 nM; on human orexin 1 receptor (setting [3]) it was 1400 nM.
Taken in the same sequence, the figures for `O=C(c1cc(F)ccc1-c1ncccn1)N1[C@@H]2CC[C@H]1[C@H](Nc1ccc(C(F)(F)F)cn1)C2` [Example 371, (5-fluoro-2-(pyrimidin-2-yl)phenyl)((1S,2R,4R)-2-((5-(trifluoromethyl)pyridin-2-yl)amino)-7-azabicyclo[2.2.1]heptan-7-yl)methanone] were 42 nM, 615 nM and 27 nM.
Turning to `Cc1ccc(-n2nccn2)c(C(=O)N2[C@@H]3CC[C@H]2[C@H](Nc2ncc(C(F)(F)F)cc2F)C3)n1` [Example 451, ((1S,2R,4R)-2-((3-fluoro-5-(trifluoromethyl)pyridin-2-yl)amino)-7-azabicyclo[2.2.1]heptan-7-yl)(6-methyl-3-(2H-1,2,3-triazol-2-yl)pyridin-2-yl)methanone], the Ki at rat orexin 1 receptor (read-out: rOX1 Ki) stood at 82 nM; at human orexin 2 receptor (setting [4]), 517 nM; on human orexin 1 receptor (read-out: hOX1 Ki), 84 nM.
On to `O=C(c1cccc(F)c1-n1nccn1)N1[C@@H]2CC[C@H]1[C@H](Nc1ncc(Br)cn1)C2` [Example 317, ((1S,2R,4R)-2-((5-bromopyrimidin-2-yl)amino)-7-azabicyclo[2.2.1]heptan-7-yl)(3-fluoro-2-(2H-1,2,3-triazol-2-yl)phenyl)methanone], for which the Ki was 31 nM on rat orexin 1 receptor (setting [1]), 1600 nM at human orexin 2 receptor (setting [2]) and 70 nM on human orexin 1 receptor (setting [3]).
For `Cc1ccc(C(=O)N2[C@@H]3CC[C@H]2[C@H](Nc2ncc(C(F)(F)F)cc2F)C3)c(-n2nccn2)n1` [Example 452, ((1S,2R,4R)-2-((3-fluoro-5-(trifluoromethyl)pyridin-2-yl)amino)-7-azabicyclo[2.2.1]heptan-7-yl)(6-methyl-2-(2H-1,2,3-triazol-2-yl)pyridin-3-yl)methanone], the figures for the Ki at rat orexin 1 receptor (setting [5]), on human orexin 2 receptor (setting [4]) and at human orexin 1 receptor (setting [6]) were 176 nM, 437 nM and 223 nM, respectively.
As to `O=C(c1cccc(F)c1-c1ccccn1)N1[C@@H]2CC[C@H]1[C@H](Nc1cnc(C(F)(F)F)cn1)C2` [Example 408, (3-fluoro-2-(pyridin-2-yl)phenyl)((1S,2R,4R)-2-((5-(trifluoromethyl)pyrazin-2-yl)amino)-7-azabicyclo[2.2.1]heptan-7-yl)methanone], the Ki amounted to 12 nM at rat orexin 1 receptor (read-out: rOX1 Ki), 150 nM on human orexin 2 receptor (setting [2]) and 19 nM on human orexin 1 receptor (read-out: hOX1 Ki).
Consider `Cc1cccc(C(=O)N2[C@@H]3CC[C@H]2[C@H](Nc2ccc(Br)cn2)C3)c1-c1ncco1` [Example 302, ((1S,2R,4R)-2-((5-bromopyridin-2-yl)amino)-7-azabicyclo[2.2.1]heptan-7-yl)(3-methyl-2-(oxazol-2-yl)phenyl)methanone], for which the Ki was 5 nM at rat orexin 1 receptor (read-out: rOX1 Ki), 188 nM on human orexin 2 receptor (setting [2]) and 5 nM on human orexin 1 receptor (read-out: hOX1 Ki).
Consider `O=C(c1c(F)cccc1-n1nccn1)N1[C@@H]2CC[C@H]1[C@H](Nc1ccc(C(F)(F)F)cn1)C2` [Example 370, (2-fluoro-6-(2H-1,2,3-triazol-2-yl)phenyl)((1S,2R,4R)-2-((5-(trifluoromethyl)pyridin-2-yl)amino)-7-azabicyclo[2.2.1]heptan-7-yl)methanone], for which the Ki at rat orexin 1 receptor (setting [1]) was 104 nM; on human orexin 2 receptor (setting [2]), 508 nM; at human orexin 1 receptor (setting [3]) it was 142 nM.
On to `O=C(c1ncccc1-c1ncccn1)N1[C@@H]2CC[C@H]1[C@H](Nc1ccc(C(F)(F)F)cn1)C2` [Example 381, (3-(pyrimidin-2-yl)pyridin-2-yl)((1S,2R,4R)-2-((5-(trifluoromethyl)pyridin-2-yl)amino)-7-azabicyclo[2.2.1]heptan-7-yl)methanone], for which the Ki at rat orexin 1 receptor (read-out: rOX1 Ki) worked out at 25 nM; on human orexin 2 receptor (setting [2]), 790 nM; on human orexin 1 receptor (read-out: hOX1 Ki), 25 nM.
For `O=C(c1ccccc1-c1ncc(F)cn1)N1[C@@H]2CC[C@H]1[C@H](Nc1ncc(C(F)(F)F)cc1F)C2` [Example 460, ((1S,2R,4R)-2-((3-fluoro-5-(trifluoromethyl)pyridin-2-yl)amino)-7-azabicyclo[2.2.1]heptan-7-yl)(2-(5-fluoropyrimidin-2-yl)phenyl)methanone], the Ki on rat orexin 1 receptor (setting [5]) amounted to 57 nM; at human orexin 2 receptor (setting [4]), 1300 nM; at human orexin 1 receptor (setting [6]) it was 41 nM.
`O=C(c1ccccc1-c1ncc(F)cn1)N1[C@@H]2CC[C@H]1[C@H](Nc1ccc(C(F)(F)F)cn1)C2` [Example 374, (2-(5-fluoropyrimidin-2-yl)phenyl)((1S,2R,4R)-2-((5-(trifluoromethyl)pyridin-2-yl)amino)-7-azabicyclo[2.2.1]heptan-7-yl)methanone]: the Ki at rat orexin 1 receptor (read-out: rOX1 Ki) stood at 41 nM; on human orexin 2 receptor (setting [2]), 921 nM; at human orexin 1 receptor (read-out: hOX1 Ki), 31 nM.
For `O=C(c1cccc(F)c1-c1ncc(F)cn1)N1[C@@H]2CC[C@H]1[C@H](Nc1ncc(C(F)(F)F)cc1F)C2` [Example 463, (3-fluoro-2-(5-fluoropyrimidin-2-yl)phenyl)((1S,2R,4R)-2-((3-fluoro-5-(trifluoromethyl)pyridin-2-yl)amino)-7-azabicyclo[2.2.1]heptan-7-yl)methanone], the Ki at rat orexin 1 receptor (read-out: rOX1 Ki) worked out at 53 nM; at human orexin 2 receptor (setting [4]) it was 1900 nM; on human orexin 1 receptor (read-out: hOX1 Ki), 50 nM.
Turning to `Cc1cccc(C(=O)N2C3CCC2C(Oc2ccc(C(F)(F)F)cn2)C3)c1-n1nccn1` (racemic) [Example 422], the figures for the Ki at rat orexin 1 receptor (setting [1]), at human orexin 2 receptor (setting [2]) and on human orexin 1 receptor (setting [3]) were 91 nM, 2150 nM and 57 nM, respectively.
Turning to `O=C(c1ncccc1-c1ncccn1)N1[C@@H]2CC[C@H]1[C@H](Nc1cnc(C(F)(F)F)cn1)C2` [Example 406, (3-(pyrimidin-2-yl)pyridin-2-yl)((1S,2R,4R)-2-((5-(trifluoromethyl)pyrazin-2-yl)amino)-7-azabicyclo[2.2.1]heptan-7-yl)methanone], the Ki at rat orexin 1 receptor (setting [1]) amounted to 59 nM; on human orexin 2 receptor (setting [2]) it was 972 nM; on human orexin 1 receptor (setting [3]), 44 nM.
On to `Cc1cnc(-n2nccn2)c(C(=O)N2[C@@H]3CC[C@H]2[C@H](Nc2ncc(C(F)(F)F)cc2F)C3)c1` [Example 453, ((1S,2R,4R)-2-((3-fluoro-5-(trifluoromethyl)pyridin-2-yl)amino)-7-azabicyclo[2.2.1]heptan-7-yl)(5-methyl-2-(2H-1,2,3-triazol-2-yl)pyridin-3-yl)methanone], for which the Ki at rat orexin 1 receptor (setting [5]) was 210 nM; at human orexin 2 receptor (setting [4]), above 10000 nM; at human orexin 1 receptor (setting [6]), 305 nM.
Consider `CN(c1ccc(C(F)(F)F)cn1)[C@@H]1C[C@H]2CC[C@@H]1N2C(=O)c1cccc(F)c1-c1ncccn1` [Example 377, (3-fluoro-2-(pyrimidin-2-yl)phenyl)((1S,2R,4R)-2-(methyl(5-(trifluoromethyl)pyridin-2-yl)amino)-7-azabicyclo[2.2.1]heptan-7-yl)methanone], for which the Ki on rat orexin 1 receptor (setting [1]) stood at 224 nM; at human orexin 2 receptor (setting [2]), 9000 nM; on human orexin 1 receptor (setting [3]), 141 nM.
For `O=C(c1cccc(F)c1-c1ncccn1)N1[C@@H]2CC[C@H]1[C@H](Nc1ncc(Br)cn1)C2` [Example 315, ((1S,2R,4R)-2-((5-bromopyrimidin-2-yl)amino)-7-azabicyclo[2.2.1]heptan-7-yl)(3-fluoro-2-(pyrimidin-2-yl)phenyl)methanone], the Ki at rat orexin 1 receptor (setting [1]) turned out to be 30 nM; on human orexin 2 receptor (setting [2]), 1850 nM; at human orexin 1 receptor (setting [3]) it was 52 nM.
Turning to `O=C(c1cccc(F)c1-c1ncccn1)N1[C@@H]2CC[C@H]1[C@H](Nc1cnc(Br)cn1)C2` [Example 309, ((1S,2R,4R)-2-((5-bromopyrazin-2-yl)amino)-7-azabicyclo[2.2.1]heptan-7-yl)(3-fluoro-2-(pyrimidin-2-yl)phenyl)methanone], the Ki on rat orexin 1 receptor (read-out: rOX1 Ki) was 19 nM; at human orexin 2 receptor (setting [2]), 1100 nM; on human orexin 1 receptor (read-out: hOX1 Ki), 22 nM.
For `O=C(c1ccccc1-c1ncc(F)cn1)N1C2CCC1C(Oc1ccc(C(F)(F)F)cn1)C2` (racemic) [Example 433], the Ki at rat orexin 1 receptor amounted to 107 nM; at human orexin 2 receptor (setting [2]), 2500 nM; at human orexin 1 receptor, 73 nM.
On to `Cc1cnc(C(=O)N2[C@@H]3CC[C@H]2[C@H](Nc2ncc(C(F)(F)F)cc2F)C3)c(-c2ncccn2)c1` [Example 457, ((1S,2R,4R)-2-((3-fluoro-5-(trifluoromethyl)pyridin-2-yl)amino)-7-azabicyclo[2.2.1]heptan-7-yl)(5-methyl-3-(pyrimidin-2-yl)pyridin-2-yl)methanone], for which the Ki on rat orexin 1 receptor (setting [5]) came out at 55 nM; on human orexin 2 receptor (setting [4]) it was 9100 nM; on human orexin 1 receptor (setting [6]) it was 98 nM.
For the molecule `Cc1cnc(C(=O)N2[C@@H]3CC[C@H]2[C@H](Nc2ncc(C(F)(F)F)cc2F)C3)c(-n2nccn2)c1` [Example 420, ((1S,2R,4R)-2-((3-fluoro-5-(trifluoromethyl)pyridin-2-yl)amino)-7-azabicyclo[2.2.1]heptan-7-yl)(5-methyl-3-(2H-1,2,3-triazol-2-yl)pyridin-2-yl)methanone], the Ki is 100 nM on rat orexin 1 receptor (setting [1]), 884 nM on human orexin 2 receptor (setting [2]) and 114 nM on human orexin 1 receptor (setting [3]).
`Cc1cccc(C(=O)N2[C@@H]3CC[C@H]2[C@H](Nc2ncc(Br)cn2)C3)c1-c1ncco1` [Example 314, ((1S,2R,4R)-2-((5-bromopyrimidin-2-yl)amino)-7-azabicyclo[2.2.1]heptan-7-yl)(3-methyl-2-(oxazol-2-yl)phenyl)methanone]: the Ki came out at 6 nM at rat orexin 1 receptor (read-out: rOX1 Ki), 349 nM at human orexin 2 receptor (setting [2]) and 14 nM at human orexin 1 receptor (read-out: hOX1 Ki).
With `O=C(c1cccc(F)c1-n1nccn1)N1C2CCC1C(Oc1ccc(Br)cn1)C2` (racemic) [Example 440], the Ki is 118 nM at rat orexin 1 receptor (setting [1]), 6000 nM at human orexin 2 receptor (setting [2]) and 100 nM at human orexin 1 receptor (setting [3]).

One may read the Ki as a dissociation constant, usually derived from enzyme kinetics or from competition with a known ligand.
